These results are taken from patent US7642287B2, “Statin pharmaceutical compositions and related methods of treatment” (Transform Pharmaceuticals, Inc., priority 2004, dated 2010).

A short description of data set [1]: Gravimetric solubility in deionized water at 23 degrees C. In kind it is physicochemical. The settings on record: listed as calcium salt of fluvastatin. The procedure: Solubility measurements of the sodium salt and of the calcium salt of fluvastatin were acquired in water at 23 degrees C. Solubility was measured gravimetrically in deionized water.
The nature of data set [2]: Aqueous solubility via UV absorption. The settings on record: water, via UV detection, 20-25 degrees C.
Experimental: The term “aqueous solubility” refers to the solubility as measured in deionized water at about 25 degrees C., unless otherwise specified.
A calibration curve was constructed by preparing known concentrations of API in absolute ethanol in volumetric flasks. At each concentration, 200 microliters of the solution was transferred into a 96-well clear bottom UV plate. The sample absorbance was measured at 280 nm (unless otherwise noted) in a UV spectrophotometer.
To measure the API concentration in the sample, a small aliquot was taken and diluted (typically 2000-fold) with absolute ethanol in a volumetric flask to a final approximate concentration of less than 100 micrograms/mL. The absorbance at 280 nm (unless otherwise noted) is measured and the solubility is calculated based on the calibration curve.
Data set [3] can be described thus: 26 week stability of pravastatin salts suspended in E463808 omega-3 oil (HPLC). In kind it is physicochemical. The procedure: Several salts of pravastatin were suspended in E463808 omega-3 oil and placed in either capped glass vials or sealed gelatin capsules. […] were used at 25 degrees C. while glass vials were used at 25, 40, and 60 degrees C. The suspensions of salt in oil were measured periodically for 26 weeks. HPLC was used to measure degradation of the pravastatin salts.

Data set [4] can be described thus: Pharmacokinetic two-way cross-over study in fasted beagle dogs (plasma pravastatin, LC/MS). In kind it is in vivo. As to the method: A two-way cross-over experiment was completed with six fasted beagle dogs to compare the pharmacokinetic parameters of pravastatin calcium salt with pravastatin sodium salt. The pravastatin sodium salt was acquired from PRAVACHOL® tablets. The pravastatin calcium salt was acquired via the method described in Example 1. The pravastatin calcium salt dosage form administered to the dogs consisted of 11.0 mg pravastatin calcium salt (equivalent to 10 mg pravastatin acid) and 744 mg Ropufa 75 ethyl esters of omega-3 fatty acids in a soft gelatin capsule shell. […] The mean dose of pravastatin free acid administered as PRAVACHOL® was 0.85 mg/kg and the mean dose of pravastatin free acid administered as pravastatin calcium salt was 0.95 mg/kg. Following administration, plasma samples were collected pre-dose and then at 0.25, 0.5, 1, 1.5, 2, 3, 4, 6, 8, 12, and 24 hours post-dose. Plasma samples were analyzed for pravastatin concentration using an LC/MS method.

Data set [5] is described as follows: Dynamic Vapor Sorption (DVS) moisture sorption isotherm. In kind it is physicochemical. The source says: Dynamic Vapor Sorption (DVS) data were also acquired on both the pravastatin calcium salt and the pravastatin sodium salt. […] This is consistent with an amorphous compound. Hysteresis is observed in the desorption cycle. […] Significant hysteresis is observed in the desorption cycle.

The format of data set [6] is physicochemical. As to the method: Several salts of pravastatin were suspended in 87:13 E681010:ethanol mixtures and placed in capped glass vials. Each suspension of pravastatin calcium, pravastatin magnesium, pravastatin sodium, or pravastatin zinc in 87:13 E681010:ethanol was measured periodically for 12 weeks. HPLC was used to measure degradation of the pravastatin salts.

Where [7] appears, read: suspension in E463808, capped glass vials, 8 weeks.
The mark [8] stands for this setting: beagle, dog, plasma, po, 0.95 mg/kg, Mean of six fasted beagle dogs, mean dose as free acid 0.95 mg/kg (calcium salt softgel), 0.85 mg/kg (PRAVACHOL).
Setting [9] is: individual dogs, oral, fasted, mean dose as free acid 0.95 mg/kg (calcium salt softgel), 0.85 mg/kg (PRAVACHOL), calcium salt.

“And” between values parts separate entries of the source, which are not always exact repeats. Equal values may be shown once. Where a name gives a salt, the structure may show the parent alone. Read-outs that look alike come from different tables or passages of the source.

On to `CC(C)n1c(/C=C/C(O)CC(O)CC(=O)O)c(-c2ccc(F)cc2)c2ccccc21` (centres unmarked) [fluvastatin calcium salt], for which the aqueous solubility result in data set [1] is listed as “less than or equal to 0.275 mg/mL”.
For `CC[C@H](C)C(=O)O[C@H]1C[C@H](O)C=C2C=C[C@H](C)[C@H](CC[C@@H](O)C[C@@H](O)CC(=O)O)[C@H]21` [pravastatin calcium salt], the aqueous solubility in data set [2] (listed as calcium salt of pravastatin, calcium salt) was 17 to 20 mg/mL. Further, the “stability in suspension of omega-3 oil relative to other pravastatin salts (sodium, potassium)” value in data set [3] (summary statement referring to the Exemplification) is listed as “higher stability”. For the same compound, in data set [3] (setting [7]), the “degradation at 60 degrees C. vs potassium salt at 40 degrees C.” value is on record as “significantly less degradation” and the “degradation at 60 degrees C. vs sodium salt at 40 degrees C.” value is given as “similar”. Moreover, the “degradation vs sodium or potassium salt at a given temperature” value in data set [3] (suspension in E463808, capped glass vials, 40 and 60 degrees C.) is reported as “degrade substantially less”. Further, the “degradation compared with all salts in gelcap or vial” value in data set [3] (suspension in E463808, vial, 25 degrees C., 26 weeks) is recorded as “degrade the least”. Moreover, in data set [4] (beagle, dog, plasma, po, 0.95 mg/kg, Mean of six dogs, relative to PRAVACHOL AUCinf, dose-normalized), the bioavailability was found to be 121%. Moreover, in data set [4] (setting [8]), the AUC(0-inf) is 441 ng·h/mL, the AUC(0-t) amounted to 432 ng·h/mL and the half-life is 2.35 h. Further, in data set [4] (beagle, dog, plasma, po, 0.95 mg/kg, Mean of six fasted beagle dogs, oral, mean dose as free acid 0.95 mg/kg (calcium salt softgel), 0.85 mg/kg (PRAVACHOL), read-out: Cmax), the Cmax is 141 ng/mL. In data set [4] (beagle, dog, plasma, po, 0.95 mg/kg, Mean of six fasted beagle dogs, oral, mean dose as free acid 0.95 mg/kg (calcium salt softgel), 0.85 mg/kg (PRAVACHOL), read-out: Tmax), the Tmax was determined as 0.71 h. In addition, the AUC(0-t) in data set [4] (beagle, dog, plasma, po, 0.95 mg/kg, individual dogs, fasted, mean dose as free acid 0.95 mg/kg (calcium salt in Ropufa 75 omega-3 ethyl esters softgel), 0.85 mg/kg (PRAVACHOL)) was determined as 488 ng·h/mL. Moreover, the AUC(0-inf) in data set [4] (beagle, dog, plasma, po, 0.95 mg/kg, individual dogs, fasted, mean dose as free acid 0.95 mg/kg (calcium salt softgel), 0.85 mg/kg (PRAVACHOL)) is 494 ng·h/mL. For the same compound, in data set [4] (fasted beagle dogs, oral), the “AUC values compared with the PRAVACHOL tablet” value was “slightly higher”, the “Cmax values compared with the PRAVACHOL tablet” value was “slightly higher” and the “Tmax values compared between the formulations” value was “comparable”. Moreover, the “AUC0–t” value in data set [4] (individual dogs, oral, fasted, mean dose as free acid 0.95 mg/kg (calcium salt in Ropufa 75 omega-3 ethyl esters softgel), 0.85 mg/kg (PRAVACHOL), calcium salt) is 438.55 ng·h/mL and 505.30 ng·h/mL and 380.68 ng·h/mL and 512.94 ng·h/mL and 264.11 ng·h/mL. Also, in data set [4] (setting [9]), the AUCinf is 453.69 ng·h/mL and 515.14 ng·h/mL and 396.20 ng·h/mL and 518.11 ng·h/mL and 268.01 ng·h/mL; the Cmax is 182 ng/mL and 131 ng/mL and 166 ng/mL and 99.0 ng/mL and 87.2 ng/mL; the time to peak (Tmax) is 1 h and 0.5 h and 0.25 h; the t1/2 was 1.67 h and 2.5 h and 1.89 h and 2.76 h and 3.44 h and 1.85 h.
In data set [2], `CCC(C)C(=O)OC1CC(O)C=C2C=CC(C)C(CCC(O)CC(O)CC(=O)[O-])C21.CCC(C)C(=O)OC1CC(O)C=C2C=CC(C)C(CCC(O)CC(O)CC(=O)[O-])C21.[Mg+2]` (centres unmarked) [pravastatin magnesium salt (habit A), pravastatin magnesium salt] returned an aqueous solubility of 14.22 mg/mL.
Consider `CCC(C)C(=O)OC1CC(O)C=C2C=CC(C)C(CCC(O)CC(O)CC(=O)[O-])C21.CCC(C)C(=O)OC1CC(O)C=C2C=CC(C)C(CCC(O)CC(O)CC(=O)[O-])C21.[Mg+2]` (centres unmarked) [pravastatin magnesium salt (habit B), pravastatin magnesium salt], for which, in data set [2], the aqueous solubility is on record as 16.12 mg/mL.
Turning to `CC[C@H](C)C(=O)O[C@H]1C[C@H](O)C=C2C=C[C@H](C)[C@H](CC[C@@H](O)C[C@@H](O)CC(=O)O)[C@H]21` [pravastatin sodium salt], the aqueous solubility entry in data set [2] (listed as sodium salt of pravastatin, sodium salt) is “greater than 300 mg/mL”. Besides, the “hygroscopicity compared with the calcium salt” value in data set [5] (DVS) was “greater hygroscopicity”. For the same compound, in data set [5] (DVS sorp-desorp cycle), the “relative humidity above which adsorbed water increased significantly” value was “about 54 percent RH”.
As to `CC[C@H](C)C(=O)O[C@H]1C[C@H](O)C=C2C=C[C@H](C)[C@H](CC[C@@H](O)C[C@@H](O)CC(=O)O)[C@H]21.[Zn]` [pravastatin zinc salt], in data set [6], the “degradation to the lactone (percent lactone)” value was “about 3%”; the “stability in suspension of omega-3 oil and an alcohol relative to other pravastatin salts” value is “higher stability”. Also, in data set [5] (25 degrees C.), the “moisture sorption behaviour (DVS isotherm)” value is “gradual increase in moisture sorption”.
Regarding pravastatin magnesium salt, the aqueous solubility in data set [2] is 17.24 mg/mL.

In general, aqueous solubility refers to the concentration that dissolves in the medium under given conditions. Usually AUC(0-inf) stands for the area under the concentration-time curve extrapolated to infinity. In general, AUC(0-t) refers to the area under the concentration-time curve up to a stated or last time point. As a reminder, the half-life is the time in which the quantity being followed falls by half. The term Cmax denotes the highest concentration seen after dosing. As usually defined, the Tmax is the time at which the peak concentration occurs.
